From US5854407A, “15-hydroxy 6,9-hemiacetal erythromycin compounds” (Takeda Chemical Corporation, priority 1992, dated 1998)
Read-outs that look alike come from different tables or passages of the source.

Columns and labels:
Gastric Motor of Dogs = assay: Effect (GMS activity) on gastric motor of dogs (strain gauge force transducer, gastric antrum, i.v.); type: in vivo, dogs (Beagles); details: for ED200: dogs; for GMS activity compared with starting compound: compared with the respective starting compounds (1) and (2); for gastrointestinal motor promoting effect: in vivo test of dogs, in words
Text: Effect (GMS activity) on Gastric Motor of Dogs was studied.
Beagles having a body weigh of about 10 kg were subjected to laparotomy under pentobarbital anesthesia, and a strain gauge force transducer was attached to the gastric antrum of each of the beagles. The beagles were used for the experiment more than 2 weeks after the operation. A lead wire of the strain gauge force transducer was connected to a recorder through an amplifier and the recorder records gastric contractions. Signals from the amplifier were supplied to a signal processor (NEC Sanei).
Each of the test compounds was dissolved in ethanol, and lactobionic acid (1 mg/mg of test compound) was added thereto, followed by dilution with physiological saline. The resulting solution was intravenously given 15 minutes after termination of the natural interdigestive migrating contractions.
The area of gastric contractions induced by administration of the test compounds was measured by use of the signal processor. Taking the area at the time that the maximum contraction of the interdigestive migrating contractions was kept for 1 minute as 100%, the dosage inducing a contraction area of 200% (ED200 value) was determined from dosage action curves.
The action (GMS activity) of the above-mentioned compounds on the gastric motor of the dogs was measured.
The measurement was carried out in a manner similar to that of Experimental Example 1.

[1] = Metabolite formation and distribution in dogs after i.v. lactobionate of compound (1); type: in vivo; details: dog, lactobionate of compound (1) 10 mg/kg, iv
Procedure: (§1) Namely, the present inventors found an active metabolite in vivo which promoted the gastrointestinal motor function (had GMS activity), when compound (1) or (2) of 14-membered ring macrolides having the structural formula shown in Table 1 below were given to the animals. Compound (1) was intravenously given to the dogs, followed by solvent extraction from the livers 30 minutes after administration, chromatography and preparative HPLC to 15 obtain two active metabolites, compounds (3) and (4). The present inventors were able to determine that the chemical structures of these compounds were 15- and 14-hydroxyl derivatives of compound (1), respectively. Compound (2) was treated similarly to obtain corresponding compounds (7) and (8).
(§2) The lactobionate of the compound (1) (10 mg/kg, iv) was injected into the fore-limb of the dog, and the blood, the liver, the bile and the urine were subjected to HP-20 chromatography. After extraction with ethyl acetate, active metabolites were determined. […] The liver was collected 30 minutes after administration, and an extracted concentrated solution thereof was subjected to HP-20 chromatography. The 80% v/v methanol/0.005N HCl fraction was extracted with ethyl acetate, and then, the extract was concentrated to obtain a powder. […]

gastrointestinal motor = assay: GMS activity of metabolites isolated from dogs; type: in vivo; details: metabolites after compound (1), dog 10 mg/kg iv
Procedure: as §1
First, the present inventors examined whether or not metabolites promoting the gastrointestinal motor (having GMS activity) were formed in vivo when the compound (1) or (2), the 6,9-hemiacetal-erythromycin derivative known in the art, was given to the animal.
as §2, with “chromatography.” for “chromatography. The 80% v/v methanol/0.005N HCl fraction was extracted with ethyl acetate, and then, the extract was concentrated to obtain a powder.”

[2] = Physicochemical nature (basicity, fat solubility)
[3] = test system: gastrointestinal peristaltic movement; details: literature; cited from earlier work
mice = assay: Acute toxicity test using mice (intravenous injection); type: in vivo; details: 100 mg/kg
[4] = Canis lupus familiaris, iv, Table 3, dose inducing contraction area of 200%, i.v., as lactobionic acid solution, read-out: ED200
[5] = Canis lupus familiaris, iv, Table 4, Experimental Example 2, similar to Experimental Example 1, read-out: ED200

With `CC[C@H]1OC(=O)[C@H](C)[C@@H](O[C@H]2C[C@@](C)(OC)[C@@H](O)[C@H](C)O2)[C@H](C)[C@@H](O[C@@H]2O[C@H](C)C[C@H](N(C)C(C)C)[C@H]2O)[C@@]2(C)CC(C)=C(O2)[C@H](C)[C@@H](O)[C@]1(C)O` [Compound (1), reference compound] the ED200 (Gastric Motor of Dogs; [4]) was 0.9 µg/kg, the ED200 (Gastric Motor of Dogs; Table 4, Experimental Example 2, similar to Experimental Example 1) was 0.9 µg/kg and the “presence in blood, liver, bile and urine” value [1] was “largely present in the blood”.

For `CC[C@H]1OC(=O)[C@H](C)[C@@H](O[C@H]2C[C@@](C)(OC)[C@@H](O)[C@H](C)O2)[C@H](C)[C@@H](O[C@@H]2O[C@H](C)C[C@H](N(C)CC)[C@H]2O)[C@@]2(C)CC(C)=C(O2)[C@H](C)[C@@H](O)[C@]1(C)O` [Compound (2), reference compound], the ED200 (Gastric Motor of Dogs; [4]) was 8 µg/kg.

In the case of `CO[C@]1(C)C[C@H](O[C@H]2[C@H](C)[C@@H](O[C@@H]3O[C@H](C)C[C@H](N(C)C(C)C)[C@H]3O)[C@@]3(C)CC(C)=C(O3)[C@H](C)[C@@H](O)[C@](C)(O)[C@@H](CCO)OC(=O)[C@@H]2C)O[C@@H](C)[C@@H]1O` [Compound (3), N-demethyl-15-hydroxy-N-isopropyl-8,9-anhydroerythromycin A 6,9-hemiacetal], the “GMS activity of metabolites / fractions” value (gastrointestinal motor) is reported as “active”, the “basicity and fat solubility” value [2] is reported as “basic fat-soluble properties” and the ED200 (Gastric Motor of Dogs; [4]) is reported as 0.5 µg/kg. The “GMS activity compared with starting compound” value (Gastric Motor of Dogs) was “stronger GMS activity than the respective starting compounds” and the “gastrointestinal motor promoting effect” value (Gastric Motor of Dogs) was “strong gastrointestinal motor promoting effect”.

In the case of `CO[C@]1(C)C[C@H](O[C@H]2[C@H](C)[C@@H](O[C@@H]3O[C@H](C)C[C@H](N(C)C(C)C)[C@H]3O)[C@@]3(C)CC(C)=C(O3)[C@H](C)[C@@H](O)[C@](C)(O)[C@@H](C(C)O)OC(=O)[C@@H]2C)O[C@@H](C)[C@@H]1O` (stereo partly shown) [Compound (4), N-demethyl-14-hydroxy-N-isopropyl-8,9-anhydorerythromycin A 6,9-hemiacetal], the “GMS activity of metabolites / fractions” value (gastrointestinal motor) is reported as “active”, the “basicity and fat solubility” value [2] is reported as “basic fat-soluble properties” and the ED200 (Gastric Motor of Dogs; [4]) is reported as 0.4 µg/kg. For the same compound, the “GMS activity compared with starting compound” value (Gastric Motor of Dogs) was “stronger GMS activity than the respective starting compounds” and the “gastrointestinal motor promoting effect” value (Gastric Motor of Dogs) was “strong gastrointestinal motor promoting effect”.

With `CC1=C2O[C@](C)(C1)[C@H](O[C@@H]1O[C@H](C)C[C@H](N(C)C(C)C)[C@H]1O)[C@@H](C)[C@H](O[C@H]1C[C@@](C)(O)[C@@H](O)[C@H](C)O1)[C@@H](C)C(=O)O[C@H](C(C)O)[C@@](C)(O)[C@H](O)[C@H]2C` (stereo partly shown) [Compound (5), 3'-O-demethyl-N-demethyl-14-hydroxy-N-isopropyl-8,9-anhydroerythromycin A 6,9-hemiacetal] the ED200 (Gastric Motor of Dogs; [5]) was 0.21 µg/kg and the “GMS activity compared with starting compound” value (Gastric Motor of Dogs) was “stronger GMS activity than the starting compound (1)”.

For `CC[C@H]1OC(=O)[C@H](C)[C@@H](O[C@H]2C[C@@](C)(O)[C@@H](O)[C@H](C)O2)[C@H](C)[C@@H](O[C@@H]2O[C@H](C)C[C@H](N(C)C(C)C)[C@H]2O)[C@@]2(C)CC(C)=C(O2)[C@H](C)[C@@H](O)[C@]1(C)O` [Compound (6)], the ED200 (Gastric Motor of Dogs; [5]) was 0.26 µg/kg and the “GMS activity compared with starting compound” value (Gastric Motor of Dogs) was “stronger GMS activity than the starting compound (1)”.

In the case of `CCN(C)[C@H]1C[C@@H](C)O[C@@H](O[C@@H]2[C@@H](C)[C@H](O[C@H]3C[C@@](C)(OC)[C@@H](O)[C@H](C)O3)[C@@H](C)C(=O)O[C@H](CCO)[C@@](C)(O)[C@H](O)[C@@H](C)C3=C(C)C[C@@]2(C)O3)[C@@H]1O` [Compound (7), N-demethyl-15-hydroxy-N-ethyl-8,9-anhydroerythromycin A 6,9-hemiacetal], the “basicity and fat solubility” value [2] is reported as “basic fat-soluble properties”, the ED200 (Gastric Motor of Dogs; [4]) is reported as 3.2 µg/kg and the “GMS activity compared with starting compound” value (Gastric Motor of Dogs) is reported as “stronger GMS activity than the respective starting compounds”. For the same compound, the “gastrointestinal motor promoting effect” value (Gastric Motor of Dogs) was “strong gastrointestinal motor promoting effect”.

With `CCN(C)[C@H]1C[C@@H](C)O[C@@H](O[C@@H]2[C@@H](C)[C@H](O[C@H]3C[C@@](C)(OC)[C@@H](O)[C@H](C)O3)[C@@H](C)C(=O)O[C@H](C(C)O)[C@@](C)(O)[C@H](O)[C@@H](C)C3=C(C)C[C@@]2(C)O3)[C@@H]1O` (stereo partly shown) [Compound (8), N-demethyl-14-hydroxy-N-ethyl-8,9-anhydroerythromycin A 6,9-hemiacetal] the “basicity and fat solubility” value [2] was “basic fat-soluble properties”, the ED200 (Gastric Motor of Dogs; [4]) was 1.8 µg/kg and the “GMS activity compared with starting compound” value (Gastric Motor of Dogs) was “stronger GMS activity than the respective starting compounds”. For the same compound, the “gastrointestinal motor promoting effect” value (Gastric Motor of Dogs) was “strong gastrointestinal motor promoting effect”.

For `CC[C@H]1OC(=O)[C@H](C)[C@@H](O[C@H]2C[C@@](C)(OC)[C@@H](O)[C@H](C)O2)[C@H](C)[C@@H](O[C@@H]2O[C@H](C)C[C@H](N(C)C)[C@H]2O)[C@](C)(O)C[C@@H](C)C(=O)[C@H](C)[C@@H](O)[C@]1(C)O` [ERM A, erythromycin A], the “motilin-like action / GMS activity” value [3] is given as “motilin-like action promoting the gastrointestinal peristaltic movement”.

In the case of `CCN(C)[C@H]1C[C@@H](C)O[C@@H](O[C@@H]2[C@@H](C)[C@H](O[C@H]3C[C@@](C)(OC)[C@@H](O)[C@H](C)O3)[C@@H](C)C(=O)O[C@H](C(C)O)[C@@](C)(O)[C@H](O)[C@@H](C)C3=C(C)C[C@@]2(C)O3)[C@@H]1O` (stereo partly shown) [lactobionate of the compound (8)], the “death in acute toxicity test” value (mice) is reported as “no case of death was observed”.
